Data published in patent US20150051257A1, “SULPHONAMIDE DERIVATIVES OF BENZYLAMINE FOR THE TREATMENT OF CNS DISEASES” (ADAMED SP. Z O.O, priority 2012, published 2015).

What was measured:
α1 (non-selective) = assay: Radioligand binding assay, adrenergic α1 receptors; conditions: test compound 1×10^−6M; [3H]prazosin; rat cerebral cortex
Procedure: (§1) Specific ligand binding to the receptors is defined as the difference between the total binding and the non-specific binding determined in the presence of an excess of unlabelled ligand.
(§2) The results are expressed as a percent of control specific binding ((measured specific binding/control specific binding)×100%) obtained in the presence of the test compounds. The compounds were tested for their affinity to receptors at a concentration of 1×10^−6M.
(§3) Conditions and methodology of in vitro tests are given by reference to the literature in Table 1, and the results of tests for representative compounds are given in Table 2 (dopaminergic receptors D2 and D3), in Table 3 (dopaminergic receptors D1 and D4.4), in Table 4 (serotoninergic receptors 5-HT1A, 5-HT2A, 5-HT6, 5-HT7), in table 5 (serotoninergic receptors 5-HT2C), in Table 6 (sigma o receptors), in Table 7 (adrenergic receptors α1, histaminergic receptors H1 and muscarinic receptors M3), in Table 8 (adrenergic receptors α2C) and in Table 9 (serotonin transporter receptors SERT).

σ (non-selective) = assay: Radioligand binding assay, σ receptors; conditions: test compound 1×10^−6M; [3H]DTG; rat cerebral cortex
Procedure: as §1, §2, §3

[1] = target: T1, hERG potassium channels (KCNH2 gene, expressed in CHO cells) (Homo sapiens, UniProt Q12809); assay: Ability to block hERG potassium channel (electrophysiology, IonWorks Quattro); type: cell-based; conditions: cloned hERG in CHO cells; test pulse +40 mV; concentration not given
T1 construct: expressed in transfected cells; host or cells: CHO cells
T1 sequence (Q12809 whole entry): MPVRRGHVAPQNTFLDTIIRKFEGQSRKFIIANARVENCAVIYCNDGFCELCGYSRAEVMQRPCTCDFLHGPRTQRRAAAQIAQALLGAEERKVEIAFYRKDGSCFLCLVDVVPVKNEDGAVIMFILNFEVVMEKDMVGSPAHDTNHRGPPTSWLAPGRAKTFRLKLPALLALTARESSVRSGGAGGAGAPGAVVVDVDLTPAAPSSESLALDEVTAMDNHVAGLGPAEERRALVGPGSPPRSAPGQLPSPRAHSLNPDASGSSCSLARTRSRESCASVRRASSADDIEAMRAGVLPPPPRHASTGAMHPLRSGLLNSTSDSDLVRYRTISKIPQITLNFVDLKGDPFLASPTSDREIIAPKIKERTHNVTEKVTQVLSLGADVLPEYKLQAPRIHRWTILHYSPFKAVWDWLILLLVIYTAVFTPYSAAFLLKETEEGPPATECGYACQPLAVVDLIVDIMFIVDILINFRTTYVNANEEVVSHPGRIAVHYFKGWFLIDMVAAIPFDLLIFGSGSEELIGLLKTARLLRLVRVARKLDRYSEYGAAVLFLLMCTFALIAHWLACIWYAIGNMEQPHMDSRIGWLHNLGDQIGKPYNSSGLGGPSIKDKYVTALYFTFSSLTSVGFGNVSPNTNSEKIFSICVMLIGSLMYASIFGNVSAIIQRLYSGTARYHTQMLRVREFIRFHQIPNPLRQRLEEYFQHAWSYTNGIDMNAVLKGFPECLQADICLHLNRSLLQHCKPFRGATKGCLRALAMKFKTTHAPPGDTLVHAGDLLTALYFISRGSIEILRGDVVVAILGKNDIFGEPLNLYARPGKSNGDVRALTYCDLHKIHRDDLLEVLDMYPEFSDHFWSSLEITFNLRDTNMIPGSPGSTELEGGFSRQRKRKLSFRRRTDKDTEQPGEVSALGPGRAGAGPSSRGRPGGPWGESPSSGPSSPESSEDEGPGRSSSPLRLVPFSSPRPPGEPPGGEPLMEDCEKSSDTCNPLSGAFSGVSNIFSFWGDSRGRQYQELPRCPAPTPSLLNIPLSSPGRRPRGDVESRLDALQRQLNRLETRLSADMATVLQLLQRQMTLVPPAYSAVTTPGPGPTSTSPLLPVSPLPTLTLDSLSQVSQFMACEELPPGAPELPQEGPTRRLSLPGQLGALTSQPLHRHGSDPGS
Procedure: Ability to Block hERG Potassium Channel Ability to block hERG potassium channels was determined using the electrophysiological method and cloned hERG potassium channels (KCNH2 gene, expressed in CHO cells) as biological material. The effects were evaluated using IonWorks™ Quattro system (MDS-AT).
hERG current was elicited using a pulse pattern with fixed amplitudes (conditioning pre-pulse: −80 mV for 25 ms; test pulse: +40 mV for 80 ms) from a holding potential of 0 mV. hERG current was measured as a difference between the peak current at 1 ms after the test step to +40 mV and the steady-state current at the end of the step to +40 mV.
Data acquisition and analyses were performed using the lonWorks Quattro™ system operation software (version 2.0.2; Molecular Devices Corporation, Union City, Calif.). Data were corrected for leak current.
The hERG block was calculated as: % Block=(1−I TA/IControl)×100%, where IControl and ITA were the currents elicited by the test pulse in control and in the presence of a test compound, respectively.

Structure (SMILES) | α1 [%] (α1 (non-selective)) | σ [%] (σ (non-selective)) | hERG [%] (% Block) [1]
O=S(=O)(Nc1cccc(CNCCc2ccccc2)c1)c1ccc2ccccc2c1 [Compound 1, N-[3-[(phenylethylamino)methyl]phenyl]naphthalene-2-sulphonamide] | 26% | 83% | 
O=S(=O)(Nc1cccc(CNCCc2cccc(Cl)c2)c1)c1ccc2ccccc2c1 [Compound 6, N-[3-[[2-(3-chlorophenyl)ethylamino]methyl]phenyl]naphthalene-2-sulphonamide] | 53% | 73% | 
Cc1cccc(CCNCc2cccc(NS(=O)(=O)c3ccc4ccccc4c3)c2)c1 [Compound 8, N-[3-[[2-(3-methylphenyl)ethylamino]methyl]phenyl]naphthalene-2-sulphonamide] | 17% | 85% | 
COc1ccccc1CCNCc1cccc(NS(=O)(=O)c2ccc3ccccc3c2)c1 [Compound 9, N-[3-[[2-(2-methoxyphenyl)ethylamino]methyl]phenyl]naphthalene-2-sulphonamide] | 56% |  | 
COc1ccccc1OCCNCc1cccc(NS(=O)(=O)c2ccc3ccccc3c2)c1 [Compound 10, N-[3-[[2-(2-methoxyphenoxyl)ethylamino]methyl]phenyl]naphthalene-2-sulphonamide] | 20% | 74% | 
COc1cccc(CCNCc2cccc(NS(=O)(=O)c3ccc4ccccc4c3)c2)c1 [Compound 11, N-[3-[[2-(3-methoxyphenyl)ethylamino]methyl]phenyl]naphthalene-2-sulphonamide] | 18% | 76% | −4%
COc1ccc(CCNCc2cccc(NS(=O)(=O)c3ccc4ccccc4c3)c2)cc1 [Compound 14, N-[3-[[2-(4-methoxyphenyl)ethylamino]methyl]phenyl]naphthalene-2-sulphonamide] | 13% | 54% | 
O=S(=O)(Nc1cccc(CNCCc2cccc(O)c2)c1)c1ccc2ccccc2c1 [Compound 17, N-[3-[[2-(3-hydroxyphenyl)ethylamino]methyl]phenyl]naphthalene-2-sulphonamide] | 31% | 71% | 
O=S(=O)(Nc1cccc(CNCCOc2cccc3c2OCCO3)c1)c1ccc(I)cc1 [Compound 22, N-[3-[[2-(2,3-dihydro-1,4-benzodioxin-5-yloxy)ethylamino]methyl]phenyl]-4-iodobenzenesulphonamide] | 84% | 95% | 
O=S(=O)(Nc1cccc(CNCCOc2cccc3c2OCCO3)c1)c1cccc2ccccc12 [Compound 35, N-[3-[[2-(2,3-dihydro-1,4-benzodioxin-5-yloxy)ethylamino]methyl]phenyl]naphthalene-1-sulphonamide] |  |  | −1%
O=S(=O)(Nc1cccc(CNCCOc2cccc3c2OCCO3)c1)c1ccc2ccccc2c1 [Compound 36, N-[3-[[2-(2,3-dihydro-1,4-benzodioxin-5-yloxy)ethylamino]methyl]phenyl]naphthalene-2-sulphonamide] |  |  | 1%
O=S(=O)(Nc1cccc(CNCCOc2cccc3c2OCCO3)c1)c1csc2ccccc12 [Compound 43, N-[3-[[2-(2,3-dihydro-1,4-benzodioxin-5-yloxy)ethylamino]methyl]phenyl]benzothiophene-3-sulphonamide] |  |  | 10%
CN(CCCc1noc2cc(F)ccc12)Cc1cccc(NS(=O)(=O)c2ccc(I)cc2)c1 [Compound 68, N-[3-[[3-(6-fluoro-1,2-benzoxazol-3-yl)propylmethylamino]methyl]phenyl]-4-iodobenzenesulphonamide] | 84% | 73% | 
